Test results: the NIST ThermoML archive (doi:10.1016/j.jct.2017.06.001)
± gives the expanded uncertainty stated by the source.

Assay: xn = mol fraction of the nth substance listed
Details: 100 kPa, Liquid, Vibrating tube method

OCCCCCO [1,5-pentanediol] + O
mass density [kg/m3]
Details | 318.15 K | 323.15 K | 328.15 K | 333.15 K
x1 = 0.005 | – | 987.42 ± 0.52 | 985.03 ± 0.52 | 982.48 ± 0.52
x1 = 0.0101 | – | 987.12 ± 1 | 984.7 ± 1 | 982.09 ± 1
x1 = 0.0196 | – | 986.93 ± 1 | 984.4 ± 1 | 981.69 ± 1
x1 = 0.0251 | – | 987.06 ± 1 | 984.49 ± 1 | 981.7 ± 1
x1 = 0.0304 | – | 987.26 ± 1 | 984.6 ± 1 | 981.74 ± 1
x1 = 0.05 | – | 987.48 ± 1 | 984.62 ± 1 | 981.63 ± 1
x1 = 0.0769 | – | 987.42 ± 1 | 984.36 ± 1 | 981.19 ± 1
x1 = 0.1002 | – | 987.52 ± 1.1 | 984.33 ± 1 | 981.04 ± 1
x1 = 0.1438 | – | 987.17 ± 1.1 | 983.84 ± 1.1 | 980.43 ± 1.1
x1 = 0.1845 | – | 986.36 ± 1.1 | 982.94 ± 1.1 | 979.44 ± 1.1
x1 = 0.2503 | – | 985.12 ± 1.2 | 981.66 ± 1.2 | 978.15 ± 1.2
x1 = 0.3 | – | 983.93 ± 1.2 | 980.46 ± 1.2 | 976.99 ± 1.2
x1 = 0.3343 | – | 983.17 ± 1.3 | 979.7 ± 1.2 | 976.21 ± 1.2
x1 = 0.4171 | – | 981.65 ± 1.4 | 978.26 ± 1.4 | 974.8 ± 1.4
x1 = 0.454 | – | 980.83 ± 1.4 | 977.43 ± 1.4 | 973.98 ± 1.4
x1 = 0.5003 | – | 980 ± 1.5 | 976.6 ± 1.5 | 973.2 ± 1.5
x1 = 0.5362 | – | 979.3 ± 1.5 | 976 ± 1.5 | 972.6 ± 1.5
x1 = 0.6177 | – | 978 ± 1.7 | 974.8 ± 1.7 | 971.5 ± 1.7
x1 = 0.6478 | – | 977.5 ± 1.7 | 974.3 ± 1.7 | 971 ± 1.7
x1 = 0.7025 | – | 976.7 ± 1.8 | 973.6 ± 1.8 | 970.3 ± 1.8
x1 = 0.7504 | – | 976.1 ± 1.9 | 972.9 ± 1.9 | 969.7 ± 1.9
x1 = 0.7927 | – | 975.4 ± 2 | 972.3 ± 2 | 969.1 ± 2
x1 = 0.8605 | – | 974.4 ± 2.1 | 971.3 ± 2.1 | 968.1 ± 2.1
x1 = 0.9004 | – | 973.7 ± 2.2 | 970.7 ± 2.2 | 967.6 ± 2.2
x1 = 0.9496 | 975.8 ± 2.2 | 972.8 ± 2.2 | 969.9 ± 2.2 | 966.7 ± 2.2
x1 = 1 | 974.9 ± 2.1 | 971.9 ± 2.1 | 969 ± 2.1 | 965.9 ± 2.1
